Non-standard residues stand in square brackets, D forms with d. No end group written: not given here.
B1: PPA1-DOX, conjugate of PPA1 with doxorubicin through an acid-sensitive hydrazone linker (peptide)
peptide: [dN][dY][dS][dK][dP][dT][dD][dR][dQ][dY][dH][dF]K
modifications: not fully specified (residue 13); also: triazole from click, hydrazone to doxorubicin
notes: D-peptide, printed as nyskptdrqyhf-Lys(N3); the last lysine carries the azide used for the conjugation to DOX; also called compound 5; PPA-DOX; source: synthetic: azide end-functionalized PPA1 peptide joined to hydrazine-DOX by click chemistry, purified by HPLC
B2: PPA1, proteolysis resistant PD-L1-targeted peptide (peptide)
peptide: NYSKPTDRQYHFK
modifications: all residues in D-form
notes: D-peptide, printed in lower case (nyskptdrqyhfk); also called free PPA1; PD-L1 targeting polypeptide; source: synthetic peptide, bought: Chinapeptides Co., Ltd

Legend:
[1] = tested on: heart, liver and kidney; assay: H&E histology of major organs of tumor-bearing mice; assay type: in vivo, Balb/c mice; conditions: CT26-bearing mice, i.p. twice a week for two weeks, n = 7
[2] = Cleavage assay of PPA1-DOX in mouse serum; assay type: in vitro ADME; conditions: mouse serum pH 7.4, 37°C, 24 h, under nitrogen, 1 mg/mol (so in the source) in 2 mL; HPLC (HILIC), UV 254 nm
Experimental: (§1) To verify the acid sensitivity of hydrazone bond linking the PPA1 to DOX, a series of PPA1-DOX and DOX solutions with different concentrations were configured in the sodium phosphate buffer (pH= 9.0), respectively. A 5 μL aliquot of each sample was injected onto an HPLC system with ultraviolet detector wavelength to determine 254 nm absorbance values, using hydrophilic interaction chromatography (HILIC) column separation (Waters, XBridge BEH HILIC XP Column, 2.1 mm, 50 mm, 2.5 µm). Through simulating the linearity fitting from disposed concentrations and detected absorbance values, standard curves of PPA1-DOX and DOX were obtained, respectively.
(§2) Preparing two partials of PPA1-DOX (1 mg/mol) were dissolved into the 2 mL sodium phosphate buffer (pH = 5.0) and 2 mL mouse serum (pH = 7.4), respectively, and the vials were capped and kept 37°C under nitrogen with continuously slight oscillaation. Samples (20 μL) were spiked and analyzed by HPLC under the 254 nm absorbance value after incubating 0.5 h, 1 h, 2 h, 4 h, 12 h and 24 h. For evaluation of hydrazone bond cleavage data was considered the disappearance of the major peak related to the standard curves of PPA1-DOX and DOX.

[3] = Cleavage assay of PPA1-DOX in acidic sodium phosphate buffer; assay type: physicochemical; conditions: sodium phosphate buffer pH 5.0, 37°C, sampled 0.5-24 h, under nitrogen, 1 mg/mol (so in the source) in 2 mL; HPLC (HILIC), UV 254 nm
Experimental: as §1, §2

[4] = Body weight of CT26 tumor-bearing mice; conditions: i.p. twice a week for two weeks, DOX 5 mg/kg, 5-Fu 10 mg/kg, PPA1 15 mg/kg, PPA1-DOX 20 mg/kg, after day 7, n = 7
From the text: Six-week-old female Balb/c mice were inoculated subcutaneously with 5 × 10^6 CT26 cells in the left armpit. The mice were randomly divided into groups with 7 mice in each group after the tumor reached about 100 mm^3. The mice were housed in animal house of Shenzhen University. For the survival experiment, the mice were killed when the tumor reached about 1500 mm^3. The tumor size and body weight were monitored every day after the injection of the drugs. At the end of the experiment, the tumors and major organs (heart, liver, spleen, lung, and kidney) were collected for immunohistochemistry and/or histological tests. For the PPA1-DOX distribution experiment, the tumors and major organs were subsequently analyzed with an in vivo imaging system (IVIS Spectrum, PerkinElmer).
DOX at 5 mg/kg, 5-Fu at 10 mg/kg, PPA1 and RAN at 15mg/kg, PPA1-DOX and RAN-DOX at 20 mg/kg were injected intraperitoneally to mice twice a week for two weeks. […] For the PPA1-DOX distribution experiment, RhB-PPA1-DOX and RhB-RAN-DOX at 20mg/kg were injected into the tail vein of the mice.

[5] = tested on: CT26 tumor; assay: Antitumor activity in CT26-bearing mice; assay type: in vivo, Balb/c mice; conditions: i.p. twice a week for two weeks
[6] = tested on: intratumoral CD4+ and CD8+ T cells; assay: CD4/CD8 immunohistochemistry of tumor tissues; assay type: in vivo, Balb/c mice; conditions: CT26-bearing mice, compared with RNA-DOX-, DOX- or 5-FU-treated mice
Experimental: The tumor tissues were fixed in 4% paraformaldehyde, gradually dehydrated, embedded in paraffin, cut into 4um sections, and subjected for hematoxylin/eosin staining. For immuno-histochemical staining of CD4/CD8 positive cells, tissue sections processed through deparaffinage, rehydration and antigen plerosised, and endogenous peroxidase activity blockade, were incubated with mouse anti-human CD4(1:300, Proteintech, USA), mouse anti-human CD8(1:200, Proteintech, USA) at 4°C overnight, respectively. The secrions were then washed and incubated with a HRP-labeled secondary antibody at RT for 40 min. After color development through incubation with diaminobenzidine, the sections were counterstained with hematoxylin. The stained sections were observed and imaged under a light microscope.

[7] = target: Programmed death-ligand 1 (PD-L1), Tag1-PD-L1 (UniProt Q9NZQ7 19-238); assay: AlphaScreen or HTRF; Cisbio HTRF PD1/PD-L1 binding assay kit; Tag1-PD-L1 and Tag2-PD1 detected with anti-Tag1-Europium (donor) and anti-Tag2-XL665 (acceptor); peptide or conjugate varied as blocker; IC50 from a sigmoidal (Hill) fit; n = 3; conditions: both partners purified
Programmed death-ligand 1 (PD-L1), Tag1-PD-L1, sequence (Q9NZQ7 19-238): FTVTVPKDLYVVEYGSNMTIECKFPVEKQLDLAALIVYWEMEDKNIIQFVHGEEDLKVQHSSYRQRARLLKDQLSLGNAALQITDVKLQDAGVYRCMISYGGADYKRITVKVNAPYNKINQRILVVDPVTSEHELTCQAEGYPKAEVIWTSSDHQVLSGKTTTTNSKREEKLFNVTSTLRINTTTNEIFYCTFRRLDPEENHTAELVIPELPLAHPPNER

Molecule	toxicity to major organs (H&E stained sections) [1]	IC50 [7]	further results
O=c1[nH]cc(F)c(=O)[nH]1 [Compound 5-Fu]	severe damages		
COc1cccc2c1C(=O)c1c(O)c3c(c(O)c1C2=O)C[C@@](O)(C(CO)=NNC(=O)CCCc1cn(CC(=O)NCCCC[C@@H](NC(=O)[C@@H](Cc2ccccc2)NC(=O)[C@@H](Cc2c[nH]cn2)NC(=O)[C@@H](Cc2ccc(O)cc2)NC(=O)[C@@H](CCC(N)=O)NC(=O)[C@@H](CCCNC(=N)N)NC(=O)[C@@H](CC(=O)O)NC(=O)[C@H](NC(=O)[C@H]2CCCN2C(=O)[C@@H](CCCCN)NC(=O)[C@@H](CO)NC(=O)[C@@H](Cc2ccc(O)cc2)NC(=O)[C@H](N)CC(N)=O)[C@H](C)O)C(=O)O)nn1)C[C@@H]3O[C@H]1C[C@H](N)[C@H](O)[C@H](C)O1 [PPA1-DOX]	rather low toxicity		stability of conjugate in mouse serum (HPLC peaks) [2]: little change on peaks; hydrazone cleavage in acidic environment [3]: rapidly cleaved into PPA1 and DOX; body weight change [4]: no remarkable body weight loss; survival time ([5]; PPA1-DOX 20 mg/kg, superior to free PPA1 and RAN-DOX, mice killed at tumor about 1500 mm^3, n = 7): longer survival time; tumor growth ([5]; PPA1-DOX and RAN-DOX 20 mg/kg, n = 7): effective suppression of tumor growth; infiltration of CD4+ and CD8+ T cells in tumors [6]: obviously increased infiltration
COc1cccc2c1C(=O)c1c(O)c3c(c(O)c1C2=O)C[C@@](O)(C(=O)CO)C[C@@H]3O[C@H]1C[C@H](N)[C@H](O)[C@H](C)O1 [DOX, doxorubicin]	severe damages		
C[C@H](O)[C@@H](NC(=O)[C@H]1CCCN1C(=O)[C@@H](CCCCN)NC(=O)[C@@H](CO)NC(=O)[C@@H](Cc1ccc(O)cc1)NC(=O)[C@H](N)CC(N)=O)C(=O)N[C@H](CC(=O)O)C(=O)N[C@H](CCCNC(=N)N)C(=O)N[C@H](CCC(N)=O)C(=O)N[C@H](Cc1ccc(O)cc1)C(=O)N[C@H](Cc1c[nH]cn1)C(=O)N[C@H](Cc1ccccc1)C(=O)N[C@H](CCCCN)C(=O)O [PPA1]	rather low toxicity		
B1		281 nM	
B2		174 nM	

— PMC8631515 (Frontiers in Oncology, 2021)
